The results in this text go back to patent US20200377568A1, “Novel IL-4-/IL-13-derived peptide compounds for the treatment or prevention of neurodegenerative or neuroinflammatory diseases” (Universitätsmedizin der Johannes Gutenberg-Universität Mainz, priority 2018, published 2020).

One experiment relates to CD4+ T cells. The experiment is described as follows: TH2 differentiation of naive T cells. Format: cell-based, mouse. To be noted: different concentrations, FIG. 4B. The method, then:
A-B: Effects of incubation with IL-4 and different concentrations of Link4 and Link13 on the differentiation of A: CD11b^+ bone marrow-derived macrophages (BMDMs) into F80^+CD206^+ cells, and B: CD4^+ T cells into Gata3^+ cells. C-D: FACS results for different populations of T cells and CD11b^+MHCII^+ monocytes/macrophages/microglia of immune cells isolated from C: spleen and D: central nervous system (CNS) of EAE mice treated with PBS, IL-4 or Link4.
In order to investigate whether Link4 and Link13 are able to modulate immune cells, in vitro assays were performed on bone marrow-derived macrophages (BDMBs) and on naïve T cells.
For the isolation of T lymphocytes 5-8 week old C57BL/6 mice were sacrificed by cervical dislocation and the spleens and lymph nodes (LN) were isolated and rubbed trough a 100 μm cell strainer into a 50 ml tube with washing medium (5% FCS, 1% P/S,1% HEPES in PBS). After washing, the cells were centrifuged for 5 min at 550 g at 4° C. To remove the red blood cells the […] was re-suspended in lysis buffer followed by centrifugation (5 min, 550 g, 4° C.). The cells were resuspended in MACS buffer and magnetic lymphocyte sorting was performed on ice, using the MidiMACS and QuadroMACS Seperators. A CD4 untouched and CD8 touched cell sort was performed a washing step in ml MACS buffer (5 min, 550 g, 4° C.). Cells were incubated with CD4 T cell biotin antibody cocktail (Miltenyi Biotec) in MACS buffer for 5 min at 4° C. Subsequently, anti-biotin microbeads and CD8 microbeads in MACS buffer was added. CD8 microbeads were added to reduce the possible contamination of CD8^+ lymphocytes. After 10 min of incubation at 4° C. the cells were washed again and resuspended in MACS buffer. MACS columns were pre equilibrated and topped with pre-separation filters (30 μm). A maximum of 300×10^6 cells were added to each column followed by 3 consecutive washing steps with MACS buffer. […] The purity of the magnetic cells sorts was assessed by comparing pre- and post-sort samples by flow cytometry. […]

In experiment [1] the test system is experimental autoimmune encephalomyelitis (EAE) mice. The experiment is described as follows: EAE clinical score, treatment during the chronic phase. The format is in vivo, mouse. To be noted: chronic phase of EAE, vs PBS. The method, then: To test whether Link4 has similar effects to IL-4 in vivo, two pilot experiments were performed. In the first experiment (FIG. 3A), B16 mice were subjected to EAE and treated with IL-4, Link4, Ph8 and PBS (n=6-7 animals per group) via lumbar intrathecal injection directly into the cerebrospinal fluid (CSF) every other day for 14 days, in the chronic phase of the disease starting from day 5 after the first disease peak (grey bar). […] For better clinical translation, the treatment was then switched to nasal treatment with IL-4 and Link4 (FIG. 3B; 2 pooled experiments, n=15-16 per group). Nasally applied treatments can enter the brain through the cribriform plate, where olfactory nerve fibers cross through the bone, resulting in a connection between the roof of the nasal cavity and the brain (C. F. Xiao, F. J. Davis, B. C. Chauhan, K. L. Viola, P. N. Lacor, P. T. Velasco, W. L. Klein, and N. B. Chauhan, Brain transit and ameliorative effects of intranasally delivered anti-amyloid-beta oligomer antibody in 5XFAD mice. J Alzheimers Dis 35, 777-788 (2013)). Again, both IL-4 and Link4 treatments were beneficial.
For active EAE, female 9-10-weeks-old C57BI6 mice were immunized as previously described (M. Paterka, J. O. Voss, J. Werr, E. Reuter, S. Franck, T. Leuenberger, J. Herz, H. Radbruch, T. Bopp, V. Siffrin, and F. Zipp, Dendritic cells tip the balance towards induction of regulatory T cells upon priming in experimental autoimmune encephalomyelitis. J Autoimmun 67, 108-114 (2017)) by subcutaneous injection of 200 μg myelin oligodendrocyte […] 35-55 (MOG35-55) mixed with complete Freund adjuvant (CFA). Following the MOG35-55 immunization 400 ng pertussis toxin (PTX) was administered intraperitoneally at the day of immunizaton and after 24 h. Clinical signs were scored using the following parameters:
Treatment with rIL-4 (1 μg, Peprotech), Ph8 (1 μg, custom synthesized, Schafer N), Link4 (1 μg, custom synthesized, Schafer N) or vehicle (PBS) was performed during the chronic phase of the disease models by lumbar intrathecal injection (R. Lu and A. Schmidtko, Direct intrathecal drug delivery in mice for detecting in vivo effects of cGMP on pain processing. Methods Mol Biol 1020, 215-221 (2013)) or nasal application of IL-4 and Link4 was performed according to published procedures (C. F. Xiao, F. J. Davis, B. C. Chauhan, K. L. Viola, P. N. Lacor, P. T. Velasco, W. L. Klein, and N. B. Chauhan, Brain transit and ameliorative effects of intranasally delivered anti-amyloid-beta oligomer antibody in SXFAD mice. J Alzheimers Dis 35, 777-788 (2013)). Mice were pre-trained to avoid stress and held at a 45 degree angle to apply IL-4 solution (1 μg, Peprotech) to the nostrils using a pipette tip.

“Also recorded” adds a separate entry of the source.

As to “RARSEIIGIGSKSIMQMDY (listed as Mus musculus) [Link4]”, the “differentiation of CD4+ T cells into Gata3+ cells” value in the experiment with CD4+ T cells was “did not take place”. In addition, the clinical score result in experiment [1] (lumbar intrathecal injection, 1 μg every other day for 14 days) is “significant improvement in the clinical score; also recorded: significant amelioration of the clinical score”; in experiment [1] (lumbar intrathecal injection, 1 μg every other day for 14 days, listed as mouse Link4), “reducing disease symptoms”; in experiment [1] (nasal application), “significant improvement in the clinical score; also recorded: beneficial”.
